Experimental data: ChEMBL document CHEMBL1201862, “PubChem BioAssay data set” (2004)
Activity calls are given as the source filed them.

Tests used:
[1] = molecular target: T1, Corticotropin-releasing factor receptor 2/Corticotropin-releasing factor-binding protein (Homo sapiens, UniProt P24387+Q13324); test: activators of CRF receptor 2 with binding protein – uHTS hits, confirmation (AID 602473); assay type: functional; details: read-out: EC50_Mean
T1 sequence (Q13324 whole entry): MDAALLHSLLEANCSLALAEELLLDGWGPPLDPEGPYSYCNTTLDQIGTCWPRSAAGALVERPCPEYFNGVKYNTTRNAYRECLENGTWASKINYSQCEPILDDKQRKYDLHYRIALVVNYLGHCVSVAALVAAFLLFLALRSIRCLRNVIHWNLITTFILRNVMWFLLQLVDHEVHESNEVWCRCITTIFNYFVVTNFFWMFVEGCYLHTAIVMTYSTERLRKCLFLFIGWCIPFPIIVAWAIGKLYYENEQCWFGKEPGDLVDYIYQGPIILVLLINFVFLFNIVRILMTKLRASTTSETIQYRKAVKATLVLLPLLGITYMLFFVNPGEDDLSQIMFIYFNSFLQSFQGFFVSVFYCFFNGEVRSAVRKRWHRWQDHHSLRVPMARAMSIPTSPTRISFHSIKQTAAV
T1 sequence (P24387 whole entry): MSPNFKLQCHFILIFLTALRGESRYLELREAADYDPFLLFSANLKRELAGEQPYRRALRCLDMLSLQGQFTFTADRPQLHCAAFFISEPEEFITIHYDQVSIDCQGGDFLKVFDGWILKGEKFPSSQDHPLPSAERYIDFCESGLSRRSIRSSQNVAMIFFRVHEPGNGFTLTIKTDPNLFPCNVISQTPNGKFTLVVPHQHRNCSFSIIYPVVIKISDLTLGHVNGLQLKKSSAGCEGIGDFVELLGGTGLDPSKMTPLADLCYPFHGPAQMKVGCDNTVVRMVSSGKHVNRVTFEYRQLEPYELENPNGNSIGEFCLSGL

Cytochrome P450 2C19 = Cytochrome P450 2C19 (Homo sapiens, UniProt P33261); test: Cytochrome panel assay with activity outcomes. Panel member name: p450-cyp2c19 Compounds with AC50 equal or less than 10 uM are considered active; assay type: functional
Sequence of Cytochrome P450 2C19 (P33261 whole entry): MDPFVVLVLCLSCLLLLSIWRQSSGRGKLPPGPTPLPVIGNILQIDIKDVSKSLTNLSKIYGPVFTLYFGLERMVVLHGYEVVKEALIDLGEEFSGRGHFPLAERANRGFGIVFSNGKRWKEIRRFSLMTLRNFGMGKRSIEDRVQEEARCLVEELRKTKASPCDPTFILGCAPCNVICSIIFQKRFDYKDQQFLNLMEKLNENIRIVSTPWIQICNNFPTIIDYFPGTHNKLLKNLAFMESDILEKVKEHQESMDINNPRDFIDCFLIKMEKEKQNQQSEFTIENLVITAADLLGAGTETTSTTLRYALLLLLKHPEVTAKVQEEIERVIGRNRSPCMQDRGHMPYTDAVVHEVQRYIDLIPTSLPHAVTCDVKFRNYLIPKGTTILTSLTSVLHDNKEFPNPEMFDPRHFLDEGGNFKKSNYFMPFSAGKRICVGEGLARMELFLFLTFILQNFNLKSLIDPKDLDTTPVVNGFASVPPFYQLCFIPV

Cytochrome P450 3A4 = Cytochrome P450 3A4 (Homo sapiens, UniProt P08684);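 also: CYP3A4 tested as one member of a cytochrome P450 panel screen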
Sequence of Cytochrome P450 3A4 (P08684 whole entry): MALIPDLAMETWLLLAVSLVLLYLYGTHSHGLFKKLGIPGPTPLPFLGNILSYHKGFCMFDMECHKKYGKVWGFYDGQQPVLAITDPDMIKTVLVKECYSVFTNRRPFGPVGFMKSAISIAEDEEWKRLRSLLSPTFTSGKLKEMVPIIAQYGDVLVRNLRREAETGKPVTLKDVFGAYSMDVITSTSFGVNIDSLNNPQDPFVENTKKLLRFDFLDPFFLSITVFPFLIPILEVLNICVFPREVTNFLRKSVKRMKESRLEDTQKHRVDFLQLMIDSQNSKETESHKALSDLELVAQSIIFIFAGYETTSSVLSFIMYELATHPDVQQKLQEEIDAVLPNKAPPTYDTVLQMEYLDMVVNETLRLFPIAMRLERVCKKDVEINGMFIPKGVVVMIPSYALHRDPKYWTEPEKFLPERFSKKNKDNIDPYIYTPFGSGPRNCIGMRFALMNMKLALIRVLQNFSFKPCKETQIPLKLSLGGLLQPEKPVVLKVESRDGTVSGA

Cytochrome P450 2C9 = Cytochrome P450 2C9 (Homo sapiens, UniProt P11712)
Sequence of Cytochrome P450 2C9 (P11712 whole entry): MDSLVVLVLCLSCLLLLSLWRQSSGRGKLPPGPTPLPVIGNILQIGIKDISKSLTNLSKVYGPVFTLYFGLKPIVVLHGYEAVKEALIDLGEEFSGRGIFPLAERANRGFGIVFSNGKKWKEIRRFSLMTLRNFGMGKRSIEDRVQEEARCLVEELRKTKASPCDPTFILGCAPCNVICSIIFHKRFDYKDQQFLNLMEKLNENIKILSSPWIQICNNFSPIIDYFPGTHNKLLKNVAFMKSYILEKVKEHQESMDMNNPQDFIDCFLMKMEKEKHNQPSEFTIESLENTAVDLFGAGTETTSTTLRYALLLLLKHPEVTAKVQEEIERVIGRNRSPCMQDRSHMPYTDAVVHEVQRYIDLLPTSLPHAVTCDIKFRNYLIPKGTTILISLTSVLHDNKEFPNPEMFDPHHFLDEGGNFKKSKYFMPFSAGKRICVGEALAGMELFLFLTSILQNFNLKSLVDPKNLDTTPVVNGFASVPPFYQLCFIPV

[2] = luciferase reporter signal suppression in cells – H4 neuroglioma cells, luminescence, dose response (AID 1990); assay type: functional, cell-based
[3] = Luminescence Cell-Based Dose Response HTS to Identify Inhibitors of 5'UTR Stem-Loop Driven Prion Protein mRNA Translation in H4 Neuroglioblastoma Cells. [Related pubchem assays: 1827 (Project Summary), 1813 (Primary HTS)]; assay type: functional
[4] = alpha-synuclein stem-loop luciferase translation blockers – H4 neuroglioma cells, luminescence, confirmation (AID 1988); assay type: functional, cell-based

COc1cc([N+](=O)[O-])ccc1-c1ccc(/C=N/NC(=O)OC(C)(C)C)o1
EC50 [1]: 6.43 µM (active)

COc1ccc(NC(=O)/C(=C\c2cc(OC)c(OC)cc2[N+](=O)[O-])NC(=O)c2ccccc2)cc1
AC50 (Cytochrome P450 2C19; read-out: AC50): 20 µM (inconclusive)
AC50 (Cytochrome P450 3A4): 0.891 µM (inconclusive)

O=C(Nc1ccc(Br)cc1Cl)c1ccc2c(=O)n3c(nc2c1)CCC3
EC50 [1]: 4.04 µM (active)

COc1ncc2nc(CCc3ccccc3)c(=O)n(CCc3ccccc3)c2n1
AC50 (Cytochrome P450 2C9): 2 µM (inconclusive)

CCC/C=C(\CCC)C(NC(=O)OCC(C)C)c1ccc(C(=O)OC)cc1 (stereo not drawn)
AC50 (Cytochrome P450 2C19; read-out: AC50): 25.1 µM (inconclusive)

CN(C)Cc1ccccc1-c1nc(N(C)Cc2ccco2)c2ccccc2n1
AC50 (Cytochrome P450 3A4): 1.58 µM (inconclusive)

COc1ccccc1-c1nc(N(C)C)c2ccccc2n1
AC50 (Cytochrome P450 3A4): 15.8 µM (inconclusive)

O=c1c(-c2ccc(Cl)cc2)nc2cncnc2n1Cc1ccc(F)cc1
AC50 (Cytochrome P450 3A4): 15.8 µM (inconclusive)

c1ccc(CNc2nc(-c3ccoc3)nc3ccccc23)cc1
AC50 (Cytochrome P450 2C19; read-out: AC50): 20 µM (inconclusive)

CCCOc1ccccc1N=C(Nc1nc(C)cc(C)n1)NS(=O)(=O)c1ccc(C)cc1
EC50 [2]: 14.6 µM (active)
EC50 [3]: > 120 µM (not active)
EC50 [4]: > 120 µM (not active)

COc1ccc(C2(C)NC(=O)N(CC(=O)c3cc(C)n(C4CC4)c3C)C2=O)cc1 (stereo not drawn)
EC50 [1]: 5.74 µM (active)

Cc1cc(C(=O)OC2CCOC2=O)c2ccccc2n1 (stereo not drawn)
AC50 (Cytochrome P450 2C19; read-out: AC50): 28.2 µM (inconclusive)

CCCCc1nc(NCC2CCCO2)c(C#N)c2c1COC(C)(C)C2 (stereo not drawn)
EC50 [2]: 28 µM (active)
EC50 [3]: > 120 µM (not active)
EC50 [4]: > 120 µM (not active)

COCCn1c(=O)c(-c2cccs2)nc2cnc(N3CCN(C)CC3)nc21
AC50 (Cytochrome P450 3A4): 31.6 µM (inconclusive)

C[C@@H](C(=O)Nc1ccc2ccccc2c1)[C@H]1C[C@]1(C)[C@H](NC(=O)Oc1ccc(F)cc1)c1ccccc1
AC50 (Cytochrome P450 2C9): 31.6 µM (inconclusive)

OCCCCNCc1ccc(OCc2ccccc2Cl)cc1
AC50 (Cytochrome P450 2C19; read-out: AC50): 25.1 µM (inconclusive)
AC50 (Cytochrome P450 3A4): 25.1 µM (inconclusive)

CC(C)(Oc1ccc(Cl)cc1)C(=O)Nc1cccnc1
AC50 (Cytochrome P450 3A4): 17.8 µM (inconclusive)

Cc1cc(Oc2ccccc2)nc(-c2ccccc2)n1
AC50 (Cytochrome P450 2C9): 12.6 µM (inconclusive)

COC(=O)[C@@]1(Cc2ccc(OC)cc2)[C@@H]2C(=CC(=O)[C@H]2CC(=O)C(=O)N2CCCC2)CN1C(=O)c1ccccc1
AC50 (Cytochrome P450 2C19; read-out: AC50): 39.8 µM (inconclusive)
AC50 (Cytochrome P450 3A4): 2 µM (inconclusive)

Nc1cccc2cc(S(=O)(=O)Nc3ccc(C(=O)O)cc3)ccc12
AC50 (Cytochrome P450 2C19; read-out: AC50): 3.16 µM (inconclusive)
AC50 (Cytochrome P450 2C9): 7.94 µM (inconclusive)

CCOc1ccc(CNC(=O)C2CCC(=O)N2C2CCCC2)cc1OC (stereo not drawn)
AC50 (Cytochrome P450 2C19; read-out: AC50): 22.4 µM (inconclusive)
AC50 (Cytochrome P450 3A4): 25.1 µM (inconclusive)
AC50 (Cytochrome P450 2C9): 28.2 µM (inconclusive)

CC1(C)C(=O)OC(c2cccn2-c2ccc([N+](=O)[O-])cc2)C2(CCCCC2)C1=O (stereo not drawn)
EC50 [1]: 4.72 µM (active)

c1ccc(Oc2cccc(OCCCCSc3ncccn3)c2)cc1
EC50 [1]: > 53 µM (inactive)

COc1ccc(Cc2nn3c(-c4ccccc4Br)nnc3s2)cc1
EC50 [2]: > 120 µM (not active)
EC50 [4]: > 120 µM (not active)

COc1cccc(-c2ccc3ncnc(NCc4cccnc4)c3c2)c1
AC50 (Cytochrome P450 2C9): 1.58 µM (inconclusive)

CN(C)CCNC(=O)c1csc(Nc2cccc3ccccc23)n1
EC50 [2]: > 120 µM (not active)
EC50 [3]: 23.6 µM (active)
EC50 [4]: 17.1 µM (active)

CC(C)=CCC/C(C)=C/CO/N=C1/C[C@@H](O)[C@@H](O)[C@@H]2[C@H]3C(=O)N(c4ccc(F)cc4F)C(=O)[C@@H]3CC[C@@H]12
AC50 (Cytochrome P450 3A4): 3.98 µM (inconclusive)

Cc1ccc(SCc2ccc(C(=O)Nc3ccccc3Br)cc2)cc1
EC50 [1]: > 53 µM (inactive)

Cc1cc(C)c2cc(C#N)c(NCCOC(=O)c3ccccc3C)nc2c1
AC50 (Cytochrome P450 2C19; read-out: AC50): 1.78 µM (inconclusive)

Nc1ccc(S(=O)(=O)c2ccc(NCN3C(=O)NC(=O)C(=O)C3=O)cc2)cc1 [ALLANTODAPSONE]
AC50 (Cytochrome P450 2C19): inconclusive

Cc1nc2cnc(Oc3cccc(Cl)c3)nc2n(C[C@H]2CCCO2)c1=O
AC50 (Cytochrome P450 3A4): 15.8 µM (inconclusive)

COc1ccc(NC(=O)N2CCCC3(CCN(C(=O)c4c(C)noc4C)CC3)C2)cc1
AC50 (Cytochrome P450 3A4): 25.1 µM (inconclusive)

CCN(CC)CC#CCOC(=O)[C@@](O)(c1ccccc1)C1CCCCC1 [ESOXYBUTYNIN]
AC50 (Cytochrome P450 2C9): 15.8 µM (inconclusive)

COc1ccc(Oc2ncc3ncc(=O)n(C[C@H]4CCCO4)c3n2)cc1
AC50 (Cytochrome P450 2C9): 20 µM (inconclusive)

Cc1cc(C)n(CC(=O)N/N=C/c2ccco2)n1
AC50 (Cytochrome P450 2C19): inconclusive

N#C/C(=C(/O)c1cccc(F)c1)c1nc2ccccc2s1
EC50 [1]: > 53 µM (inactive)

CCOC(=O)c1sc(NC(=O)c2cccc(S(=O)(=O)N3c4ccccc4CC3C)c2)cc1C (stereo not drawn)
EC50 [2]: 10.1 µM (active)
EC50 [3]: 13.6 µM (active)
EC50 [4]: 6.96 µM (active)

O=C(OCc1ccccc1Cl)c1cc([N+](=O)[O-])ccc1N1CCOCC1
EC50 [2]: 23.3 µM (active)
EC50 [3]: > 120 µM (not active)
EC50 [4]: 36.1 µM (active)

Cc1c(CC(C)(C)C(=O)O)n(Cc2ccc(Cl)cc2)c2ccc(F)cc12
AC50 (Cytochrome P450 2C19): inconclusive
AC50 (Cytochrome P450 3A4): 25.1 µM (inconclusive)

COc1ccc(/C=N/NC(=O)C2CCN(c3ncc(C(F)(F)F)cc3Cl)CC2)cc1
AC50 (Cytochrome P450 3A4): 11.2 µM (inconclusive)

Cc1ccccc1C(=O)Nc1cccc(NC(=O)Cn2cnc3c(=O)n(C)c(=O)n(C)c32)c1
EC50 [2]: 26.9 µM (active)
EC50 [3]: 12.9 µM (active)
EC50 [4]: > 120 µM (not active)

CCOc1ccc(S(=O)(=O)Nc2nc3ccccc3nc2Nc2ccc(N3CCOCC3)cc2)cc1
EC50 [1]: > 53 µM (inactive)

N#Cc1ccc(CN2CCCC3(CCN(C(=O)c4cccc(F)c4)CC3)C2)cc1
AC50 (Cytochrome P450 3A4): 10 µM (inconclusive)
AC50 (Cytochrome P450 2C9): 39.8 µM (inconclusive)

Cc1ccc2cc(C(c3nnnn3C3CCCC3)N3CCN(c4ccc(F)cc4)CC3)c(O)nc2c1 (stereo not drawn)
EC50 [2]: 20.6 µM (active)
EC50 [3]: 113 µM (active)
EC50 [4]: 106 µM (active)

CCOC(=O)CC(=O)CSc1nc(-c2cccnc2)cc(C)c1C#N
AC50 (Cytochrome P450 2C19; read-out: AC50): 8.91 µM (inconclusive)
AC50 (Cytochrome P450 3A4): 11.2 µM (inconclusive)

COc1ccc(-c2oc3cc(OC)c(O)c(OC)c3c(=O)c2OC)cc1O
EC50 [2]: 11.3 µM (active)
EC50 [3]: 12.6 µM (active)
EC50 [4]: 13.6 µM (active)

CCCOC(=O)c1ccc(NC(=O)c2cn(CC)c3nc(C)ccc3c2=O)cc1
AC50 (Cytochrome P450 2C19; read-out: AC50): 20 µM (inconclusive)
AC50 (Cytochrome P450 2C9): 15.8 µM (inconclusive)

COc1ccccc1NC(=O)CCSc1nnnn1C
EC50 [1]: > 53 µM (inactive)

COc1ccccc1-c1ccc2ncnc(Nc3ccccc3)c2c1
AC50 (Cytochrome P450 2C9): 1.26 µM (inconclusive)

Cc1cc(C)cc(N2C(=O)/C(=C/NC3CCS(=O)(=O)C3)c3ccccc3C2=O)c1 (stereo not drawn)
AC50 (Cytochrome P450 2C19; read-out: AC50): 39.8 µM (inconclusive)

COc1ccc(NC(=O)c2cc(-c3cccnc3)nc3ccc(C)cc23)cc1OC
AC50 (Cytochrome P450 2C19; read-out: AC50): 10 µM (inconclusive)
AC50 (Cytochrome P450 2C9): 7.08 µM (inconclusive)

O=c1c(-c2cccs2)nc2cncnc2n1C1CC1
AC50 (Cytochrome P450 3A4): 5.01 µM (inconclusive)
AC50 (Cytochrome P450 2C9): 15.8 µM (inconclusive)

Cc1cc(S(=O)(=O)NCCN(C)C)c(C)s1
AC50 (Cytochrome P450 2C19; read-out: AC50): 31.6 µM (inconclusive)
AC50 (Cytochrome P450 2C9): 0.0447 µM (inconclusive)
